This assay addresses T1, human recombinant 5-HT6 receptors (Homo sapiens, UniProt P50406).
T1 construct: purchased Receptor Biology, Inc., Beltsville Md; 20705, USA RB-HS6; host or cells: HEK293 cells (membranes)
Kind of assay: Binding to human recombinant 5-HT6 receptors ([3H]-LSD displacement, HEK293 membranes). The settings on record: [3H]-LSD 1 nM, membranes of HEK293 cells, 1 hour at 37° C.; Ki=IC50/(1+L/KD). The procedure: 1. Binding to Human Recombinant 5-HT6 Receptors
The binding of the compounds according to the invention to human recombinant 5-HT6 receptors can be determined as follows. Membranes of HEK293 cells which express human recombinant 5-HT6 receptors (RB-HS6, Receptor Biology, Inc., Beltsville Md. 20705, USA) were suspended in the ratio 1:40 in ice-cold sample buffer consisting of 50 mM tris HCl, 5 mM MgCl2, 0.5 mM EDTA; 0.1% ascorbic acid and 10 μM pargyline (pH 7.4) and homogenized (Polytron). 100 μl of membrane suspension, 50 μl of [^3H]-LSD (specific activity 75 Ci/mmol, final concentration […]) and 50 μl of test substance solution (8 different concentrations, 10^−5 to 10^−9 M) were incubated for 1 hour at 37° C. and the [^3H]-LSD bound to the receptor was then separated from the free [^3H]-LSD by filtration. The radioactivity retained by the filter was determined by scintillation spectroscopy. All tests were carried out in triplicate determinations. The IC50 values were calculated using the program GraphPadPrism (Hill equation, special: one-site competition). The inhibition constant of the test substance Ki was determined from the IC50 value of the compounds (concentration of the test substance at which 50% of the ligand bound to the receptor is displaced), the dissociation constant KD and the concentration L of [^3H]-LSD (Ki=IC50/(1+L/KD)).

The Ki is a dissociation constant, usually derived from enzyme kinetics or from competition with a known ligand.

T1 sequence (P50406 whole entry): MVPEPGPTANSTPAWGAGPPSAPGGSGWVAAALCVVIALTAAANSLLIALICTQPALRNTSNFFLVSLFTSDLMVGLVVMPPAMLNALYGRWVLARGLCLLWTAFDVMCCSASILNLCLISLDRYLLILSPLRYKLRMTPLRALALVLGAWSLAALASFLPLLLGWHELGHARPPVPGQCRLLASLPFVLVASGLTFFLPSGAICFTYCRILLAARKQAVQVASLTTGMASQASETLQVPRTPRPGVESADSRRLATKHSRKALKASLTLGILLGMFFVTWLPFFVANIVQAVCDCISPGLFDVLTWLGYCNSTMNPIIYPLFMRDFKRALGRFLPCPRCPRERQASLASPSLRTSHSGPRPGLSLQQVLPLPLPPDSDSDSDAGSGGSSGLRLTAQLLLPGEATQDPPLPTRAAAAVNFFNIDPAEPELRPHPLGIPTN

For the compound `CCn1ccc2ccc(S(=O)(=O)Nc3cccc(NC(=O)C(C)(C)C)c3)cc21` [Example 44], the Ki is 12 nM.

Values taken from patent US20040122076A1, “Sulphonamides for the treatment of central nervous system diseases” (priority 2000, published 2004).
